Experiment [1] has as its system SARS-CoV-2. Description: Antiviral activity against SARS-CoV-2 infected in African green monkey Vero E6 cells assessed as reduction in viral replication pre-infected with cells for 1 hr followed by compound treatment and measured after 3 days by RT-qPCR analysis. Type of experiment: functional, organism-based. Conditions: Severe acute respiratory syndrome coronavirus 2, Vero C1008. (In general: Real-time PCR tracks product formation cycle by cycle.)

Experiment [2] concerns SARS-CoV-2. Description: Antiviral activity against SARS-CoV-2 WK-521 infected in African green monkey VeroE6/TMPRSS2 cells assessed as reduction in virus infectivity at 10 to 100 uM by immunocytochemistry analysis. Type of experiment: functional, organism-based. Conditions: Severe acute respiratory syndrome coronavirus 2, dose 10-100 µM.
Experiment [3] concerns SARS-CoV-2. Description: Potency index, ratio of nirmatrelvir EC50 to test compound EC50 for antiviral activity against SARS-CoV-2 infected in African green monkey Vero E6 cells assessed as reduction in viral replication pre-infected with cells for 1 hr followed by compound treatment and measured after 3 days by RT-qPCR analysis. It is filed as functional, Severe acute respiratory syndrome coronavirus 2. Conditions: time 3 day.

Experiment [4] addresses Replicase polyprotein 1ab (Severe acute respiratory syndrome coronavirus 2, UniProt P0DTD1). In words: Inhibition of N-terminal hexa-histidine tagged SARS-CoV-2 main protease expressed in Escherichia coli BL21 (DE3) using HiLyte Fluor 488TM-ESATLQSGLRKAK-QXL520TM-NH2 as substrate by FRET assay.
The subject of experiment [5] is SARS-CoV-2. In words: Antiviral activity against SARS-CoV-2 WK-521 infected in African green monkey VeroE6/TMPRSS2 cells assessed as reduction in virus infectivity at 1 uM by immunocytochemistry analysis. Type of experiment: functional, organism-based. Conditions: Severe acute respiratory syndrome coronavirus 2.

pEC50, pKi: −log10 of the molar value. Activity calls are given as the source filed them. The calls are words filed in the database; no cut-off is given here.

In general, pEC50 refers to −log10 of the EC50, conventionally taken in molar units. As a reminder, the pKi is the Ki on a negative log10 scale, so that one unit is a factor of ten. With `CC(C)(C)[C@H](NC(=O)C(F)(F)F)C(=O)N1C[C@H]2[C@@H]([C@H]1C(=O)N[C@H](C#N)C[C@@H]1CCCNC1=O)C2(C)C`, the pEC50 in experiment [1] was 6.59. Besides, the outcome in experiment [2] was Active. Further, the “Ratio EC50” value in experiment [3] was determined as 7. For the same compound, the pKi in experiment [4] is 10.40.
Regarding `CC(C)(C)C(=O)N[C@H](C(=O)N1C[C@H]2[C@@H]([C@H]1C(=O)N[C@H](C#N)C[C@@H]1CCNC1=O)C2(C)C)C(C)(C)C`, the pEC50 in experiment [1] is 5.64. In experiment [4], the pKi is 7.66.
On the same counts, the results for `CC(=O)N[C@H](C(=O)N1C[C@H]2[C@@H]([C@H]1C(=O)N[C@H](C#N)C[C@@H]1CCNC1=O)C2(C)C)C(C)(C)C` are 5.40 and 9.36.
With `CC(C)(C)[C@H](NC(=O)C(F)(F)F)C(=O)N1C[C@H]2[C@@H]([C@H]1C(=O)N[C@H](C#N)C[C@@H]1CCNC1=O)C2(C)C`, the result in experiment [2] was Active. For the same compound, the outcome in experiment [5] was inactive.
In the case of `CCC(CC)COC(=O)[C@H](C)N[P@](=O)(OC[C@H]1O[C@@](C#N)(c2ccc3c(N)ncnn23)[C@H](O)[C@@H]1O)Oc1ccccc1`, the pEC50 in experiment [1] is 5.49.
Turning to `CC(C)(C)[C@H](NC(=O)c1ccccc1)C(=O)N1C[C@H]2[C@@H]([C@H]1C(=O)N[C@H](C#N)C[C@@H]1CCNC1=O)C2(C)C`, the pEC50 in experiment [1] is 4.77. Further, the pKi in experiment [4] was 7.43.
Take `CC(C)(C)[C@H](NC(=O)OCc1ccccn1)C(=O)N1C[C@H]2[C@@H]([C@H]1C(=O)N[C@H](C#N)C[C@@H]1CCNC1=O)C2(C)C`: the negative-log EC50 (pEC50) in experiment [1] is 4.53. The compound further had a pKi in experiment [4] of 7.49.
Consider `CC(C)(C)[C@H](NC(=O)C(Cl)(Cl)Cl)C(=O)N1C[C@H]2[C@@H]([C@H]1C(=O)N[C@H](C#N)C[C@@H]1CCNC1=O)C2(C)C`, for which the pEC50 in experiment [1] was 5.80. In experiment [4], this compound had a pKi of 9.70.
On the same counts, the results for `CC(C)(C)[C@H](NC(=O)OCc1ccncc1)C(=O)N1C[C@H]2[C@@H]([C@H]1C(=O)N[C@H](C#N)C[C@@H]1CCNC1=O)C2(C)C` are 4.40 and 9.31.
On the same counts, the results for `CC(C)(C)[C@H](NC(=O)OCc1cccnc1)C(=O)N1C[C@H]2[C@@H]([C@H]1C(=O)N[C@H](C#N)C[C@@H]1CCNC1=O)C2(C)C` are 7.46 and 10.05.
`CC(C)(C)[C@H](NC(=O)OCc1ccccc1)C(=O)N1C[C@H]2[C@@H]([C@H]1C(=O)N[C@H](C#N)C[C@@H]1CCNC1=O)C2(C)C`: the pEC50 in experiment [1] was 6.54. The same compound showed a pKi in experiment [4] of 10.60.
On to `CC(C)(C)NC(=O)N[C@H](C(=O)N1C[C@H]2[C@@H]([C@H]1C(=O)N[C@H](C#N)C[C@@H]1CCNC1=O)C2(C)C)C(C)(C)C`, for which the pEC50 in experiment [1] is 4.00.
As for `CC(C)(C)[C@H](NC(=O)OCc1cccnc1)C(=O)N1C[C@H]2[C@@H]([C@H]1C(=O)N[C@H](C#N)C[C@@H]1CCCNC1=O)C2(C)C`, the pEC50 in experiment [1] was 5.47. In addition, the pKi in experiment [4] is 10.03.
Regarding `CC(C)(C)[C@H](NC(=O)OCc1ccncc1)C(=O)N1C[C@H]2[C@@H]([C@H]1C(=O)N[C@H](C#N)C[C@@H]1CCCNC1=O)C2(C)C`, the pEC50 in experiment [1] was 4.57. The same compound had a pKi in experiment [4] of 8.11.
On the same counts, the results for `CC(C)(C)[C@H](NC(=O)C(F)(F)F)C(=O)N1C[C@H]2[C@@H]([C@H]1C(=O)N(C(=O)C(F)(F)F)[C@H](C#N)C[C@@H]1CCNC1=O)C2(C)C` are 4.00 and 4.49.
`CC(C)(C)[C@H](NC(=O)C(Cl)(Cl)Cl)C(=O)N1C[C@H]2[C@@H]([C@H]1C(=O)N[C@H](C#N)C[C@@H]1CCCNC1=O)C2(C)C`: the pEC50 in experiment [1] was 6.57. The “Ratio EC50” value in experiment [3] is on record as more than 7. In addition, the pKi in experiment [4] was 8.96.

(Values after ChEMBL document CHEMBL5543094, “Exploration of P1 and P4 modifications of nirmatrelvir: Design, synthesis, biological evaluation, and X-ray structural studies of SARS-CoV-2 Mpro inhibitors” (Eur J Med Chem, 2024).)
